Reference: patent US20240150339A1, “Compounds and Their Use as PDE4 Activators” (Mironid Limited, priority 2021, published 2024)

What follows are molecules tested against T1, PDE4D5 (Homo sapiens, UniProt Q08499) (assay: PDE assay, activation of full-length human PDE4D5 long form ([3H]cAMP radio-assay)). Conditions: 30 μM test compound; mean % increase in counts over basal activity.
T1 construct: Using Full-Length Human PDE4 Isoforms: Long Forms PDE4D5, PDE4C3, PDE4B1 and Short Form PDE4B2; made in house; cytosol fraction of the cell lysate, not purified
Format: biochemical
Text: Experiment 1: Measurement of Modulation of Enzyme Activity by PDE4 Long Form Activators of the Present Invention Using Full-Length Human PDE4 Isoforms: Long Forms PDE4D5, PDE4C3, PDE4B1 and Short Form PDE4B2
(Marchmont, R. J. and Houslay, M. D. Biochem. J. 187: 381-92, 1980)
For transient transfection of exogenous PDE4 long isoforms, HEK 293 cells were transfected with pcDNA3.1 or pDEST™ PDE4 expression vectors using Lipofectamine LTX/Plus reagent (Invitrogen) as outlined by the manufacturer.
Where stable cell lines were generated the clonal isolates were expanded to obtain cell lines that stably expressed the full-length human PDE4 long isoforms and the full length human PDE4B2 short isoform. These were called the HEK-PDE4D5, HEK-PDE4B1 and HEK-PDE4B2 cell lines, respectively.
HEK-PDE4D5 cells were seeded out in 100 mm plates and incubated at 37° C. in an atmosphere of 5% CO2, 95% air. Cell lysates were prepared using KHEM buffer [50 mM KCl, 10 mM EGTA, 50 mM HEPES (pH 7.2), 1.92 mM MgCl2].
To prepare the cell lysates, the 100 mm plates containing the cells were placed on ice and washed with ice-cold PBS (phosphate buffered saline, pH 7.4). KHEM buffer (500 μl) was added to the cells. Cells were then scraped off the plate and triturated using a needle (BD Microlance™ 0.8, 40 mm). The lysed cells were then centrifuged at 2000 rpm for 10 minutes to remove cell debris and the supernatant (cell lysate containing recombinant PDE4D5) was transferred to a fresh tube and kept on ice.
The cell lysate containing recombinant PDE4D5 was transferred into a centrifuge tube and placed into an ultracentrifuge (BECKMAN COULTER) and spun at high speed (100,000 g) for 30 minutes at 4° C. The cytosol fraction was then collected and its protein amount determined using a BCA protein assay.
PDE assays were performed in thin walled V-bottomed 96-well plates. The assays were performed at a final concentration of 10 mM Tris/5 mM MgCl2 μlus PDE4D5 cell lysate cytosol fraction, containing over-expressed PDE4D5, with and without test compound. The lysate/compound mix were incubated together for 15 min at room temperature on an orbital shaker prior to addition of [^3H] cAMP (final concentration 1 μM [^3H] cAMP; Perkin Elmer) to a final volume of 50 μl per reaction. The reactions were then incubated for 10 minutes at 30° C., terminated by heating for 2 min at 95° C. and allowed to cool. Snake venom (12.5 μl of 1 mg/ml; Crotalus atrox, Sigma) was then added and the plates were agitated and incubated for a further 15 minutes at 30° C. Dowex ion exchange resin (Sigma, chloride form, 200-400 mesh; 200 μl; prepared as a 1:1 Dowex: water stock, thoroughly re-suspended and diluted 2:1 with ethanol) was then added to each well and the plates incubated for 15 min at room temperature on an orbital shaker ensuring sufficient agitation for resin suspension (550 RPM). The reaction mixture was then transferred to a 96 well filter plate (Millipore; […] pore size) and filtered into a receiving 96-well plate to remove the dowex suspension. 30 μL of the filtered solution was then transferred to the wells of an Opti-plate (Perkin Elmer) 96 well assay plate and 120 μl of Microscint 40 scintillation fluid was added. The plate was then placed on an orbital shaker for 10 min at high speed (900 RPM) to mix the sample with scintillation fluid prior to quantitation using a plate based scintillation counter (Top-Count).
The % increase in counts in the presence of test compound at a particular concentration indicates the % increase in enzyme activity at that concentration.

T1 sequence (Q08499 1-745 isoform Q08499-6): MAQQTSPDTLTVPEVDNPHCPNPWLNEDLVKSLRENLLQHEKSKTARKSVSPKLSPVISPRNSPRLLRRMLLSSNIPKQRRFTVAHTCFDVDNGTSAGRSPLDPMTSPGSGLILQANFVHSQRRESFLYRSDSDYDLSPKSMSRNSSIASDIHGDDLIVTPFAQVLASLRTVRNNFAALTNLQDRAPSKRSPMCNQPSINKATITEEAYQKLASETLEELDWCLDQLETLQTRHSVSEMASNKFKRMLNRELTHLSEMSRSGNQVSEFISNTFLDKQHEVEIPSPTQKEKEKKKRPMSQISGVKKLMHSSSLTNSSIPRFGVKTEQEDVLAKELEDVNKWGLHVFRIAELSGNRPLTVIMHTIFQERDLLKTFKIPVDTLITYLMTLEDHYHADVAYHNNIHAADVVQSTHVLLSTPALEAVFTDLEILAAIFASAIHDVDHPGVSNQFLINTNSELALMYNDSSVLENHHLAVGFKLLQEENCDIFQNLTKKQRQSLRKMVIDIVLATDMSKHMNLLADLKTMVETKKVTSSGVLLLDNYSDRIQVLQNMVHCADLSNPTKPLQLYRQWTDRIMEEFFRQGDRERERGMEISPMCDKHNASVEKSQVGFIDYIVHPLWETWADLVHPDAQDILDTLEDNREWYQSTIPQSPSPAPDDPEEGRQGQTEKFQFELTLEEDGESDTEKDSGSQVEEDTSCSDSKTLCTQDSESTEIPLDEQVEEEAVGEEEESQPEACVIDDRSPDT

activation at 30 µM [%] | Structure (SMILES)
89 | O=C(N[C@H]1CCOc2ccccc21)c1ccc2sc(-c3cccnc3)nc2c1 [Example 67, (S)-N-(chroman-4-yl)-2-(pyridin-3-yl)benzo[d]thiazole-5-carboxamide]
32 | CCN1CCN(c2nc3ccc(C(=O)N[C@H]4CCOc5ccccc54)cc3s2)CC1 [Example 72, (S)-N-(chroman-4-yl)-2-(4-ethylpiperazin-1-yl)benzo[d]thiazole-6-carboxamide]
138 | Cc1cncc(-c2nc3ccc(C(=O)N[C@@H]4c5ccccc5C[C@H]4O)cc3s2)c1 [Example 42, N-((1R,2R)-2-hydroxy-2,3-dihydro-1H-inden-1-yl)-2-(5-methylpyridin-3-yl)benzo[d]thiazole-6-carboxamide]
133 | O=C(N[C@H]1CCOc2ccccc21)c1ccc2nc(-c3cncc(CO)c3)sc2c1 [Example 62, (S)-N-(chroman-4-yl)-2-(5-(hydroxymethyl)pyridin-3-yl)benzo[d]thiazole-6-carboxamide]
106 | O=C(N[C@H]1CCOc2ccccc21)c1ccc2nc(-c3ccncc3)sc2c1 [Example 54, (S)-N-(chroman-4-yl)-2-(pyridin-4-yl)benzo[d]thiazole-6-carboxamide]
101 | Cc1cnn(C)c1-c1nc2ccc(C(=O)N[C@H]3CCOc4ccccc43)cc2s1 [Example 58, (S)-N-(chroman-4-yl)-2-(1,4-dimethyl-1H-pyrazol-5-yl)benzo[d]thiazole-6-carboxamide]
194 | Cc1cncc(-c2nc3ccc(C(=O)N[C@H]4c5ccccc5C[C@@H]4O)cc3s2)c1 [Example 41, N-((1S,2S)-2-hydroxy-2,3-dihydro-1H-inden-1-yl)-2-(5-methylpyridin-3-yl)benzo[d]thiazole-6-carboxamide]
122 | Cc1c(-c2nc3ccc(C(=O)N[C@H]4CCOc5ccccc54)cc3s2)cnn1C [Example 60, (S)-N-(chroman-4-yl)-2-(1,5-dimethyl-1H-pyrazol-4-yl)benzo[d]thiazole-6-carboxamide]
100 | Cn1cc(-c2nc3ccc(C(=O)N[C@H]4CCOc5ccccc54)cc3s2)cn1 [Example 57, (S)-N-(chroman-4-yl)-2-(1-methyl-1H-pyrazol-4-yl)benzo[d]thiazole-6-carboxamide]
57 | O=C(N[C@H]1CCOc2ccccc21)c1ccc2nc(N3CCCCC3)sc2c1 [Example 76, (S)-N-(chroman-4-yl)-2-(piperidin-1-yl)benzo[d]thiazole-6-carboxamide]

The remaining lines, values behind:

Structure (SMILES) | activation at 30 µM [%]
Cc1ccc(-c2nc3ccc(C(=O)N[C@H]4CCOc5ccccc54)cc3s2)cn1 [Example 24, (S)-N-(chroman-4-yl)-2-(6-methylpyridin-3-yl)benzo[d]thiazole-6-carboxamide] | 97
Cc1ccc(-c2nc3ccc(C(=O)NCc4ccc(Cl)cc4)cc3s2)cn1 [Example 11, N-(4-chlorobenzyl)-2-(6-methylpyridin-3-yl)benzo[d]thiazole-6-carboxamide] | 104
Cc1ccc(-c2nc3ccc(C(=O)N[C@@H]4c5ccccc5C[C@@H]4O)cc3s2)cn1 [Example 20, N-((1R,2S)-2-hydroxy-2,3-dihydro-1H-inden-1-yl)-2-(6-methylpyridin-3-yl)benzo[d]thiazole-6-carboxamide] | 105
O=C(N[C@H]1CCCc2ccccc21)c1ccc2nc(-c3cccnc3)sc2c1 [Example 8, (S)-2-(pyridin-3-yl)-N-(1,2,3,4-tetrahydronaphthalen-1-yl)benzo[d]thiazole-6-carboxamide] | 82
COc1ccc(CNC(=O)c2ccc3nc(-c4ccc(C)nc4)sc3c2)cc1 [Example 13, N-(4-methoxybenzyl)-2-(6-methylpyridin-3-yl)benzo[d]thiazole-6-carboxamide] | 93
Cc1ccc(-c2nc3ccc(C(=O)N[C@H]4CCCc5ccccc54)cc3s2)cn1 [Example 23, (S)-2-(6-methylpyridin-3-yl)-N-(1,2,3,4-tetrahydronaphthalen-1-yl)benzo[d]thiazole-6-carboxamide] | 94

Each molecule was assayed on m-IMCD3 cells (assay: Inhibition of PGE2-stimulated in vitro cyst formation in 3D culture of m-IMCD3 cells). Conditions: Mus musculus, mIMCD3, 144 h; 10 μM test compound; mean cyst area (%) compared to 100% for (DMSO + PGE2) and 0% for DMSO control; 100 nM PGE2; 6 days; read-out: % Cyst area after incubation with 10 μM test compound.
Format: cell-based, mouse
Procedure: HEK 293 and MDCK cells (Public Health England, Cell Culture Collections) were maintained in Dulbecco's Modified Eagle's Medium (DMEM) supplemented with 10% (v/v) fetal bovine serum (FBS) (Seralab), 2 mM L-glutamine and 100 U/ml penicillin streptomycin cocktail (ThermoFisher); termed complete media. Clonal HEK 293 cell lines were maintained in complete media supplemented with 0.6 mg/mL G418 (Enzo Life Sciences). Mouse inner medullary collecting duct (m-IMCD3) cells [American Type Culture Collection (ATCC)] were maintained in media consisting of DMEM/Hams F-12 50/50 Mix (DMEM F12; Corning) supplemented with penicillin streptomycin cocktail (100 U/ml) and FBS (10% v/v) (DMEM F12-10% FBS).
The mouse Inner Medullary Collecting Duct cell line (m-IMCD3) spontaneously forms cystic spheroids in 3D culture with a Type 1 collagen/Matrigel extracellular matrix. This process can be stimulated with agents which raise intracellular cAMP, such as PGE2, and is used as an in vitro model for the formation of cystic structures in the kidneys of patients with ADPKD.
Rat Collagen I (Fisher Scientific) is prepared on ice by neutralising with 1M NaOH and diluting with a 2×volume of DMEM/F12+10% FBS for coating plate (coating mix) and a 2.2 volume of DMEM/F12+10% FBS for cell plating (plating mix). This is mixed 1:1.1 with ice cold Matrigel (Corning) for coating plates (coating mix), and 1:0.95 with Matrigel for cell plating (plating mix).
The assay is conducted in the wells of a 96-well plate culture dish using a total volume of 130 μl of collagen/Matrigel/DMEM F12-10% FBS suspension in growth media for each matrix plug per individual well. Initially, 30 μl of collagen/Matrigel/DMEM F12-10% FBS (coating mix) is added into the well of a 96 well plate and the collagen is set to a gel by incubating at 37° C. for at least 15 minutes. A second layer of 100 μl collagen/Matrigel suspension (plating mix) containing m-IMCD3 cells (2.75×10^6 m-IMCD3 cells per 96-well plate) is layered over the coating mix and the collagen/Matrigel/cell mix again set to a gel by incubating at 37° C. Cell cultures are maintained at 37° C. in an atmosphere of 5% CO2, 95% air.
Between 18 and 24h after plating, test compound(s) as DMSO stock solutions [0.1% (v/v) final DMSO concentration] and PGE2 (100 nM final concentration) in DMEM F12-10% FBS are added in quadruplicate wells per condition. Media, togetherwith the test compound and PGE2 are replenished after 2 or 3 days. After 6 days of culture z stack images of the wells are captured using the Nikon Eclipse Ti2-E microscope. Nikon General Analysis software is used to measure the following parameters in each well: the mean cyst area, the number of cysts, and the total cyst area.
PDE4 long form activators inhibited in vitro cyst formation in m-IMCD3 cells. Data are shown in FIG. 2 and Table 5 as mean cyst area (%), compared to 100% for (DMSO+PGE2) and 0% for DMSO control.

Structure (SMILES) | activity at 10 µM [%]
CCN1CCC(c2nc3ccc(C(=O)N[C@@H]4c5ccccc5C[C@@H]4O)cc3s2)CC1 [Example 166, 2-(1-ethylpiperidin-4-yl)-N-((1R,2S)-2-hydroxy-2,3-dihydro-1H-inden-1-yl)benzo[d]thiazole-6-carboxamide] | -10
O=C(NC1CCC(F)(F)CC1)c1ccc2nc(N3C4CCC3CN(CCCO)C4)sc2c1 [Example 243, N-(4,4-difluorocyclohexyl)-2-(3-(3-hydroxypropyl)-3,8-diazabicyclo[3.2.1]octan-8-yl)benzo[d]thiazole-6-carboxamide] | 6
Cc1ncccc1-c1nc2ccc(C(=O)N[C@H]3CCc4ccccc43)cc2s1 [Example 5, (S)-N-(2,3-dihydro-1H-inden-1-yl)-2-(2-methylpyridin-3-yl)benzo[d]thiazole-6-carboxamide] | 1
CCN1CCN(c2nc3c(OC)cc(C(=O)NC4CCCC4)cc3s2)CC1 [Example 222, N-cyclopentyl-2-(4-ethylpiperazin-1-yl)-4-methoxybenzo[d]thiazole-6-carboxamide] | 1
O=C(N[C@H]1CCOc2ccccc21)c1ccc2nc(N3CCOCC3)sc2c1 [Example 69, (S)-N-(chroman-4-yl)-2-morpholinobenzo[d]thiazole-6-carboxamide] | 20
